Our source for the IC50 values is patent US20170291890A1 (Epizyme, Inc., priority 2014, published 2017).

Assay [1] deals with T1, KDM4A (Homo sapiens, UniProt O75164).
T1 construct: N-terminal His-tagged KDM4A^1-350 was purchased from BPS Biosciences; His (N); purchased BPS Biosciences
T1 sequence (O75164 1-350): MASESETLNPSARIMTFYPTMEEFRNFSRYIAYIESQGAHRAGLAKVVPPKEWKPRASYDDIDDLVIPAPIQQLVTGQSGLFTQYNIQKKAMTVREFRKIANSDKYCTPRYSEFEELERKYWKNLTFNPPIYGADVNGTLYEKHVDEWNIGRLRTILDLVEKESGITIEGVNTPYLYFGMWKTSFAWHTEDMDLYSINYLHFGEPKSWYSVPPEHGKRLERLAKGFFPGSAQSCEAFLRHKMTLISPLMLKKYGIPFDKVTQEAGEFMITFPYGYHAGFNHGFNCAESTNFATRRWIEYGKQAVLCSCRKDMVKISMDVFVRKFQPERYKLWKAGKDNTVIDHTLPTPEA
Kind of assay: KDM4A Assay (SAMDI mass spectrometry demethylase assay). It is filed as biochemical. To be noted: N-terminal His-tagged KDM4A 1-350; class symbols; read-out: 4A IC50. In a few lines: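 His-tagged KDM4A 1-350 (5 nM final) was preincubated 30 min with compound (10 μM final for screening) in 50 mM HEPES pH 8.0 with ascorbate, 10 μM Fe(II) and TCEP. Biotinylated Kme2 peptide (600 nM) and 2-oxoglutarate (5 μM) reacted 120 min at 25°C before a formic acid stop. SAMDI-MS % conversion from substrate and product peak areas; IC50 from dose-response.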

Assay [2] has as its target T2, KDM4C (Homo sapiens, UniProt Q9H3R0).
T2 construct: N-terminal GST-tagged KDM4C^2-372 was purchased from BPS Biosciences; GST (N); purchased BPS Biosciences
T2 sequence (Q9H3R0 2-372): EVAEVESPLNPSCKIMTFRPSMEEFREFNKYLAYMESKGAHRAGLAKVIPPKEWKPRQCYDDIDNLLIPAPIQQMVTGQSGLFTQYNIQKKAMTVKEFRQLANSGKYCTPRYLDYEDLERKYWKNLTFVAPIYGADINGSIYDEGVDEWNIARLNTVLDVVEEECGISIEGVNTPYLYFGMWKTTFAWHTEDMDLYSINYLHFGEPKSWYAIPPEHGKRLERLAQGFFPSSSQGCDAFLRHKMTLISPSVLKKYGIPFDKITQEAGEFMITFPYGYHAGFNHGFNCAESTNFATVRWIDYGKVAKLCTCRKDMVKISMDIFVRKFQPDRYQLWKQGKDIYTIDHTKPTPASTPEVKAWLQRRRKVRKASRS
Kind of assay: KDM4C Assay (SAMDI mass spectrometry demethylase assay). It is filed as biochemical. To be noted: N-terminal GST-tagged KDM4C 2-372; class symbols; read-out: 4C IC50. The gist of the method:
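GST-tagged KDM4C 2-372 (5 nM) preincubated 30 min with compound, then H3K9me3 biotinylated peptide (500 nM) and 2-oxoglutarate (15 μM) added in HEPES pH 8.0 with ascorbate, Fe(II), TCEP; 150 min at 25 °C, formic-acid quench. Conversion by SAMDI mass spectrometry from substrate/product peak AUC; IC50 from dose-response.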

For the compound `COC(=O)c1ccncc1Nc1cn(C2CCN(C(C)C)CC2)nc1C` [Compound 101, methyl 3-((1-(1-isopropylpiperidin-4-yl)-3-methyl-1H-pyrazol-4-yl)amino)isonicotinate], the IC50 in assay [1] and in assay [2] was 10 to 100 µM in each case.
As to `Cc1nn(C2CCN(C(C)C)CC2)cc1Nc1cnccc1C(=O)O` [Compound 102, 3-((1-(1-isopropylpiperidin-4-yl)-3-methyl-1H-pyrazol-4-yl)amino)isonicotinic acid], the IC50 in assay [1] and in assay [2] was 0.1 to 1 µM in each case.
As to `COC(=O)c1ccncc1Nc1cnn(C2CCN(C(C)C)CC2)c1C` [Compound 103, methyl 3-((1-(1-isopropylpiperidin-4-yl)-5-methyl-1H-pyrazol-4-yl)amino)isonicotinate], the half-maximal inhibitory concentration (IC50) in assay [1] and in assay [2] was 10 to 100 µM throughout.
Take `Cc1c(Nc2cnccc2C(=O)O)cnn1C1CCN(C(C)C)CC1` [Compound 104]: the half-maximal inhibitory concentration (IC50) in assay [1] and in assay [2] was 0.1 to 1 µM in each case.
As to `Cc1nn(CCN(C)C)cc1Nc1cnccc1C(=O)O` [Compound 107, 3-(1-(2-(dimethylamino)ethyl)-3-methyl-1H-pyrazol-4-ylamino) isonicotinic acid], the IC50 (as a rule, the concentration that gives 50% inhibition) in assay [1] fell in the range of 0.1 to 1 µM; in assay [2] it was 1 to 10 µM.
Taken in the same sequence, the figures for `Cc1nn(C2CCCN(C)CC2)cc1Nc1cnccc1C(=O)O` (centres unmarked) [Compound 111, 3-(3-methyl-1-(1-methylazepan-4-yl)-1H-pyrazol-4-ylamino) isonicotinic acid] were 0.1 to 1 µM and 0.1 to 1 µM.
Regarding `Cc1c(Nc2cnccc2C(=O)O)cnn1C1CCCN(C)CC1` (centres unmarked) [Compound 112, 3-((5-methyl-1-(1-methylazepan-4-yl)-1H-pyrazol-4-yl)amino)isonicotinic acid], the IC50 in assay [1] and in assay [2] was 0.1 to 1 µM in each case.
